# Test results published in article PMC8263619, “Functional characteristics of a novel odorant binding protein in the legume pod borer, Maruca vitrata” (Scientific Reports, 2021).
# Key:
# [1] = biological target: MvitOBP3 protein; assay: Fluorescence competitive binding assay with 1-NPN probe; design: species or system Maruca vitrata; conditions: recombinant MvitOBP3, 1-NPN fluorescent probe; for IC50: read-out: IC50, ligand concentration displacing 50% of the fluorescence intensity of the MvitOBP/N-phenyl-1-naphthylamine complex; for Ki: read-out: Ki, dissociation constant
# Experimental: The fluorescence measurement takes advantage of the fluorescent properties of the dye, 1-NPN (N-Phenyl-1-naphthylamine, CAS 90-30-2) and is performed by Hitachi F-4500. The wavelength of excitation light was 337 nm, the range of scanning emission wavelength was 350–500 nm, and the slit width was 5 nm. […] Add 2 mL of the protein with a final concentration of 2 μmol/L to a 1 cm, four-sided quartz cup, then add 1-NPN (1 mM/L) to the final concentration is 2–24 μmol/L. And recorded the maximum fluorescence value and determine the protein dissociation constant K1-NPN.
# In fluorescence competitive binding assay, the 1-NPN was used as the fluorescent probe, and the dissociation constant (Ki) values of the MvitOBP3/1-NPN complexes were calculated according to the changes in the fluorescence intensity (Fig. 5A). […] These seventeen volatile ligands from host-plant were selected to test binding affinities of MvitOBP3 (Fig. 5 and Table 2).
# [2] = biological target: MvitGOBP1; design: method as in PMID 26517714; conditions: cited from earlier work
# [3] = biological target: MvitGOBP2 protein; design: method as in PMID 26517714; conditions: cited from earlier work
IC50 [1] [µM],Ki [1] [µM],SMILES,Ki [2] [µM],Ki [3] [µM]
33.6,29.7,"CCc1cccc(CC)c1 [1,3-diethylbenzene]",–,–
29.3,25.9,"CCc1ccc(CC)cc1 [1,4-diethylbenzene]",–,–
21.8,19.3,"Cc1cc(C)cc(C(C)(C)C)c1 [1-(1,1-Dimethylethyl)-3,5-dimethylbenzene]",–,–
21.4,18.9,"CC(=O)c1ccc(C)cc1C [1-(2,4-Dimethylphenyl)-ethanone]",–,–
12.6,11.2,Oc1cccc2[nH]ccc12 [1H-indol-4-ol],10.9,–
24.2,21.4,O=Cc1ccccc1O [2-hydroxybenzaldehyde],–,–
22.8,20.1,CCc1ccc(C=O)cc1 [4-ethylbenzaldehyde],–,–
41.8,37,CC(=O)c1ccccc1 [Acetophenone],–,–
11.1,9.79,CCCCOC(=O)CCC [Butanoic acid butyl ester],12.5,–
21.2,18.7,CCCCCCCCOC(=O)CCC [Butanoic acid octyl ester],–,8.5
9.4,8.31,C=C(C)C1CC=C(C)CC1 (stereo not shown) [Limonene],13.8,–

SMILES,IC50 [1] [µM],Ki [1] [µM],Ki [2] [µM],Ki [3] [µM]
"CC(=O)c1ccc(C(C)=O)cc1 [1,4-diacetyl benzene]",28.4,25.1,–,–
CCc1ccc(C(C)=O)cc1 [1-(4-ethylphenyl)-ethanone],24.1,21.3,–,–
CC(C=O)Cc1ccccc1 (stereo not shown) [2-methyl-3-phenylpropanal],10.6,9.38,–,3.81
CCC(=O)c1ccc(CC)cc1 [4-ethylpropiophenone],26.7,23.6,14.2,–
CC(=O)c1ccc(O)c(C)c1 [4-hydroxy-3-methylacetophenone],22.7,20.1,–,–
O=Cc1ccccc1 [Benzaldehyde],43.3,38.3,–,–
